Experiments:
[1] = molecular target: T1, CDK1 (Homo sapiens, UniProt P06493); test: CDK-1 kinase screening assay (33P-ATP FlashPlate); type: biochemical; conditions: human CDK1 with cyclin B; 10 μM ATP; 1 hr at 30° C
T1 construct: purchased New England Biolabs, Beverly, Mass; 6020; host or cells: insect cells
Protocol: A kinase reaction mixture was prepared containing 50 mM Tris-HCl pH=8, 10 mM MgCl2, 0.1 mM […], 1 mM DTT, 10 μM ATP, 0.025 μM biotinylated histone-H1 peptide substrate and 0.2 μCuries per well ^33P-γ-ATP (2000-3000 Ci/mmol). 70 μL of the kinase reaction mixture was dispensed into the well of a streptavidin coated FlashPlate™ (Cat. # SMP103, NEN, Boston, Mass.).
Test compound stock in 100% DMSO (1 μL) was added to the wells resulting in a final concentration of 1% DMSO in the reaction with a 100 μL final reaction volume. Each enzyme was diluted in 50 mM Tris-HCl pH=8.0, 0.11% BSA and 30 μL was added to each well to initiate the reaction. The reaction was incubated for one hour at 30° C. At the end of the 1 hr incubation, the reaction was terminated by aspirating the mixture from the plate and washing the wells twice with PBS containing 100 mM EDTA. The biotinylated peptide substrate became immobilized on the Flashplate™ and the incorporation of ^33P-γ-ATP was measured by reading the plate on a scintillation counter. Inhibition of the enzymatic activity was measured by observing a reduced amount of ^33P-γ-ATP incorporated into the immobilized peptide.
The CDK1 enzyme was isolated from insect cells expressing both the human CDK1 catalytic subunit (Accession number NM_001786) and its positive regulatory subunit cyclin B (New England Biolabs, Beverly, Mass.; Cat. # 6020). The assay used 30 ng of the N-terminal biotinylated peptide biotin-[…]-amide (Cyclin dependent kinase 1) per well.
A maximum and minimum signal for the assay was determined on each plate. The percent inhibition of a test compound was calculated according to the formula: […]
For a series of test concentrations, the IC50 was derived by graphing percent inhibition against the log of the concentrations tested for a given compound with results shown in Table 1.
For compounds with multiple values, each value represents a separate assay result.

[2] = molecular target: T2, Aurora-A (Mus musculus, UniProt P97477); test: Aurora-A kinase screening assay (33P-ATP FlashPlate); type: biochemical; conditions: 10 μM ATP, 1 hr at 30° C;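 further: His-tagged mouse Aurora-A phosphorylating a biotinylated peptide captured on streptavidin plates, read as 33P uptake by scintillation counting, 1% DMSO, inhibition scaled between per-plate maximum and minimum signals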
T2 construct: polyhistidine (N)
T2 sequence (P97477 1-395): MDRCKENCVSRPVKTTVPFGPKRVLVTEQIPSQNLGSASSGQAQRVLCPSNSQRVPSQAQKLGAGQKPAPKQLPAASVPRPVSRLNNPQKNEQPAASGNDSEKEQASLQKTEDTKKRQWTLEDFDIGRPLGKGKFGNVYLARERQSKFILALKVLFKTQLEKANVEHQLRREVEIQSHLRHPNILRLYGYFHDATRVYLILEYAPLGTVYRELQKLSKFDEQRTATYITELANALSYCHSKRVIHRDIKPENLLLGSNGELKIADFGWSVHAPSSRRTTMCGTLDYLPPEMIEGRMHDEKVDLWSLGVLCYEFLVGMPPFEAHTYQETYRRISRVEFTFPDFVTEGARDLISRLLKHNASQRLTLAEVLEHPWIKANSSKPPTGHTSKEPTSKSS

[3] = molecular target: T3, VEGF-R2 (Rattus norvegicus, UniProt O08775); test: VEGF-R2 kinase screening assay (33P-ATP FlashPlate); type: biochemical; conditions: rat VEGF-R2 kinase domain; 10 μM ATP; 1 hr at 30° C;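 further: Read-out is ³³P incorporation from ³³P-γ-ATP into biotinylated peptide substrate captured on streptavidin FlashPlate, counted by scintillation, 1% DMSO final, inhibition scaled between per-plate maximum and minimum signals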
T3 construct: polyhistidine (N)
T3 sequence (O08775 786-1343): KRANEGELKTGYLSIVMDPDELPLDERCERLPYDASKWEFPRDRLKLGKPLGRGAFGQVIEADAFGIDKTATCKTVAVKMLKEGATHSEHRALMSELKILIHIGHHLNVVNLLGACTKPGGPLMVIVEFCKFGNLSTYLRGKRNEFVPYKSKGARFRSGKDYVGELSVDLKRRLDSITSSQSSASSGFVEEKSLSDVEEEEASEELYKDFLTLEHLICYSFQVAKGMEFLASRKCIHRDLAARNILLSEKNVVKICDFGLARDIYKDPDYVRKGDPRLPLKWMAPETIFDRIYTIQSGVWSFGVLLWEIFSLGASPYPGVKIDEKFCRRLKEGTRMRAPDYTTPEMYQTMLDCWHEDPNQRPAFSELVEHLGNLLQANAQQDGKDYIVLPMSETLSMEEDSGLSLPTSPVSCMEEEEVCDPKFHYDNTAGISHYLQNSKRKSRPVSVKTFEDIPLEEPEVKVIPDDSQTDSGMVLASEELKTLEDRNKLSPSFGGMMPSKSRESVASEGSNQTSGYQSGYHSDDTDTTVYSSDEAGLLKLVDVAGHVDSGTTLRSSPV

[4] = test system: HeLa cervical adenocarcinoma; test: Cell Proliferation Inhibition Assay (14C-thymidine incorporation), HeLa; type: cell-based; conditions: Homo sapiens, HeLa, HeLa cells;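 further: test compound in DMSO added to cells seeded in scintillating 96-well plates, DMSO-only wells as control, uptake of methyl 14C-thymidine into new DNA counted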
[5] = test system: A375 malignant melanoma; test: Cell Proliferation Inhibition Assay (14C-thymidine incorporation), A375; type: cell-based; conditions: Homo sapiens, A-375, A375 cells;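 further: proliferation measured by radiolabelled thymidine uptake into new DNA, counted in scintillating 96-well plates, compound-treated wells compared with DMSO-only control wells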
[6] = test system: HCT-116 colon carcinoma; test: Cell Proliferation Inhibition Assay (14C-thymidine incorporation), HCT-116; type: cell-based; conditions: Homo sapiens, HCT-116, HCT-116 cells;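 further: proliferation measured as methyl 14C-thymidine uptake into new DNA, counted in 96-well scintillating microplates, compared with DMSO-only control wells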
[7] = molecular target: T4, HER2 (Homo sapiens, UniProt P04626); test: HER2 kinase screening assay (33P-ATP FlashPlate); type: biochemical; conditions: GST-HIS6 HER-2 aa 679 to 1255; 10 μM ATP; 1 hr at 30° C;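 further: Biotin-poly(GT) 4:1 peptide captured on streptavidin FlashPlate, 33P transfer from γ-ATP read by scintillation counting, lower incorporation means inhibition, 1% DMSO final, 100 µL reaction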
T4 construct: GST (Glutathione-S-Transferase) (N); HIS6 (N); thrombin cleavage site (N); purchased Proqinase, Freiburg, Germany
T4 sequence (P04626 679-1255): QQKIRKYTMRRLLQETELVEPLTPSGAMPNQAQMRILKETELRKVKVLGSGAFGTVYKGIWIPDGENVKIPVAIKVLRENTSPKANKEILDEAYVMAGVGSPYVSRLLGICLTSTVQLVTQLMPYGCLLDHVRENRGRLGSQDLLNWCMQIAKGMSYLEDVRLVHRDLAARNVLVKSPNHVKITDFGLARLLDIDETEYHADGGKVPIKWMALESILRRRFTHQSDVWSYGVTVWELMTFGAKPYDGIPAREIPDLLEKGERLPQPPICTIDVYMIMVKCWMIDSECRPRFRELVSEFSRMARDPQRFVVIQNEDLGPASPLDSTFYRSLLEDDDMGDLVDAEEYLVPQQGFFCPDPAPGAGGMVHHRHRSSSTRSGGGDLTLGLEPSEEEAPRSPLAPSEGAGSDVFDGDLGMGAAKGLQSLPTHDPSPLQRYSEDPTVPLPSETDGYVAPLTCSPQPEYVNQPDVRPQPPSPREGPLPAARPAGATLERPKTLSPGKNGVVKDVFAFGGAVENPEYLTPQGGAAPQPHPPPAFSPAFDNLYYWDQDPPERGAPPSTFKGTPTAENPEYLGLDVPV

T1 sequence (P06493 whole entry): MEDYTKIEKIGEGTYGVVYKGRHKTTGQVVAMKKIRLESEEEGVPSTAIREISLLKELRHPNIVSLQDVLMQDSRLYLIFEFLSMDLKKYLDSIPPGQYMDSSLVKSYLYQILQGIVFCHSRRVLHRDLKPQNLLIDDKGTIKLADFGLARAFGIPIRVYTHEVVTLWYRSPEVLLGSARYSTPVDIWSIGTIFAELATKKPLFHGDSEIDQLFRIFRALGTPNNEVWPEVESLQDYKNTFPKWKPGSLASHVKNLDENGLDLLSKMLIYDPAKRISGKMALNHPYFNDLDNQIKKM
T1 sequence (P14635 whole entry partner): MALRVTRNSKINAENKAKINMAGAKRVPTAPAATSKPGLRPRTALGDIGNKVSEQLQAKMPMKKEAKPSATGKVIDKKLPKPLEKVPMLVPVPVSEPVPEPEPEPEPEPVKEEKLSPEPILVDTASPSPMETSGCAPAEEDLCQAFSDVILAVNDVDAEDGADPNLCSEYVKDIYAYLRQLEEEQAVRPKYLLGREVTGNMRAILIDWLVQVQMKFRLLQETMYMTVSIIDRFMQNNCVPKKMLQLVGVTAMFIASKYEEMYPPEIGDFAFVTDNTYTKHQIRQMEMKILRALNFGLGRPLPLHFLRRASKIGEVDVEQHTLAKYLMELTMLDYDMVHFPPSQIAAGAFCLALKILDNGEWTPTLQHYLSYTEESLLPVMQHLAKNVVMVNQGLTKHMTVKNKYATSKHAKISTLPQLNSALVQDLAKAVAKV

Structure (SMILES) | IC50 [1] [nM] | IC50 [2] [nM] | IC50 [3] [nM] | IC50 [4] [nM] | IC50 [5] [nM] | IC50 [6] [nM] | IC50 [7] [nM]
CN1CCN(c2ccc3[nH]c(-c4n[nH]c5ncc(-c6cncc(CN7CCCC7)c6)cc45)nc3c2)CC1 [Cpd 87, 3-[5-(4-methyl-piperazin-1-yl)-1H-benzoimidazol-2-yl]-5-(5-pyrrolidin-1-ylmethyl-pyridin-3-yl)-1H-pyrazolo[3,4-b]pyridine] | 29.3 | 445 | 113 | 2150 | 807 | 1050 | 12100
CNCc1cncc(-c2cnc3[nH]nc(-c4nc5cc6c(cc5[nH]4)OC(F)(F)O6)c3c2)c1 [Cpd 100, {5-[3-(2,2-difluoro-5H-[1,3]dioxolo[4′,5′:4,5]benzo[1,2-d]imidazol-6-yl)-1H-pyrazolo[3,4-b]pyridin-5-yl]-pyridin-3-ylmethyl}-methyl-amine] | 1.6 | ~10000 | ~100 | 55.1 | 52.5 | 237 | 7060
c1ccc2c(-c3cnc4[nH]nc(-c5nc6ccccc6[nH]5)c4c3)cncc2c1 [Cpd 1, 4-[3-(1H-benzoimidazol-2-yl)-1H-pyrazolo[3,4-b]pyridin-5-yl]-isoquinoline] | 23.3 | – | 1460 | – | – | – | 141
COC(=O)c1cccc2[nH]c(-c3n[nH]c4ncc(-c5cccnc5)cc34)nc12 [Cpd 93, 2-(5-pyridin-3-yl-1H-pyrazolo[3,4-b]pyridin-3-yl)-1H-benzoimidazole-4-carboxylic acid methyl ester] | – | – | – | ≥ 100000 | ≥ 100000 | ≥ 100000 | –
COC(=O)c1ccc2[nH]c(-c3n[nH]c4ncc(-c5cccnc5)cc34)nc2c1 [Cpd 91, 2-(5-pyridin-3-yl-1H-pyrazolo[3,4-b]pyridin-3-yl)-3H-benzoimidazole-5-carboxylic acid methyl ester] | 11.2 | – | – | 826 | 428 | 386 | –

The next lines start with the values.

IC50 [1] [nM] | IC50 [2] [nM] | IC50 [3] [nM] | IC50 [4] [nM] | IC50 [5] [nM] | IC50 [6] [nM] | IC50 [7] [nM] | Structure (SMILES)
106 | 8020 | 4670 | – | – | – | – | CCNCc1cncc(-c2cnc3[nH]nc(-c4nc5c(COC)cccc5[nH]4)c3c2)c1C [Cpd 59, ethyl-{5-[3-(4-methoxymethyl-1H-benzoimidazol-2-yl)-1H-pyrazolo[3,4-b]pyridin-5-yl]-4-methyl-pyridin-3-ylmethyl}-amine]
– | – | 1550 | 28.9 | 46.7 | 30.6 | – | CCN(CC)Cc1cccc2[nH]c(-c3n[nH]c4ncc(-c5cncc6ccccc56)cc34)nc12 [Cpd 5, diethyl-[2-(5-isoquinolin-4-yl-1H-pyrazolo[3,4-b]pyridin-3-yl)-1H-benzoimidazol-4-ylmethyl]-amine]
3.95 | > 100 | 378 | 35.2 | 64.7 | 41.5 | > 10000 | CC(C)NC(=O)c1cccc2[nH]c(-c3n[nH]c4ncc(-c5cncc6ccccc56)cc34)nc12 [Cpd 18, 2-(5-isoquinolin-4-yl-1H-pyrazolo[3,4-b]pyridin-3-yl)-1H-benzoimidazole-4-carboxylic acid isopropylamide]
358 | ~10000 | 916 | 1840 | 866 | 866 | – | COCc1cccc2[nH]c(-c3n[nH]c4ncc(Br)cc34)nc12 [Cpd 11, 5-bromo-3-(4-methoxymethyl-1H-benzoimidazol-2-yl)-1H-pyrazolo[3,4-b]pyridine]
96.7 | – | – | 3090 | 1720 | 1640 | – | Cc1cccc2[nH]c(-c3n[nH]c4ncc(-c5cncc6ccccc56)cc34)nc12 [Cpd 2, 4-[3-(4-methyl-1H-benzoimidazol-2-yl)-1H-pyrazolo[3,4-b]pyridin-5-yl]-isoquinoline]
